Measurements taken from article PMC6213981, “Crystal structures and kinetics of N-acetylneuraminate lyase from Fusobacterium nucleatum” (Acta Crystallographica. Section F, Structural Biology …, 2018).

Target: T1, FnNanA (Fusobacterium nucleatum, UniProt Q8RDN6)
T1 construct: gene nanA; pET300/NT-DEST, synthetic DNA, E. coli BL21 (DE3); tetramer
T1 sequence (Q8RDN6 1-290): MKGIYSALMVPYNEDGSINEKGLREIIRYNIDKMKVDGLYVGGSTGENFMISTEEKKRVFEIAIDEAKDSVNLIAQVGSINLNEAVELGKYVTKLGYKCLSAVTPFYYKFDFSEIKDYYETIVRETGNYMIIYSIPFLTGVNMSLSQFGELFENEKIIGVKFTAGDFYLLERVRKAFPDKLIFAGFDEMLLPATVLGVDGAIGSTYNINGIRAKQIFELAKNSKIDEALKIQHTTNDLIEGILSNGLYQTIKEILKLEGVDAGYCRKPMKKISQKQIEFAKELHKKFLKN
Assay: X-ray crystal structure, […] Å
Assay type: binding
Settings: covalent; Schiff base with Lys161 in active site; crystallised at pH 9.5, 277 K

For CC(=O)C(=O)O [pyruvate], the “X-ray crystal structure, 1.76 Å” value was “N∊ atom of Lys161 is conjugated as a Schiff base to the C2 atom of pyruvate”.
